From publication PMC11643494, “Structure–Activity Relationship Studies in a Series of 2-Aryloxy-N-(pyrimidin-5-yl)acetamide Inhibitors of SLACK Potassium Channels” (Molecules, 2024) come the findings set out here.

This assay has as its target T1, NaV1.7 (Homo sapiens, UniProt Q15858).
T1 construct: expressed in transfected cells; host or cells: HEK293
Briefly: Tl+-flux assay in HEK-293 cells, NaV1.7. The conditions noted are these: HEK293; 10 µM test compound; relative to control TC-N 1752; read-out: Percent Inhibition ± SEM, NaV1.7. The class given is cell-based. The source says: Having executed our plan to prepare analogs across the identified regions of the chemotype (Figure 2), we identified two analogs for further profiling and evaluation. […] Desiring to add a second compound with some measure of structural differences, we also chose another submicromolar SLACK inhibitor 66 (VU0936154). Whereas 40 contains an ether linker and a halogenated phenyl group in the eastern region, […] contains an N-methyl linker and a phenyl group with a more polar cyano substituent. We first screened these analogs at 10 µM versus our in-house panel of ion channel targets using Tl^+-flux assays in HEK-293 cells expressing the human target of interest. […] Included in this set are Slo family members SLICK and two isoforms of Maxi-K, as well as several different K^+, Na^+, and Ca^2+ channels (Table 6). […] Of note was the excellent selectivity versus the broader panel of targets for both compounds, including versus the hERG channel.
Stably transfected monoclonal HEK293 cell lines expressing SLICK, Maxi-K α1/β3, Maxi-K α1/β4, CaV3.2, GIRK 1/2, KV2.1, KV7.2, NaV1.7, and TASK-1 were generated as previously described. […]
The Tl^+ flux assays were conducted as previously described, with modifications optimized for individual cell lines as described below. […] Cell plates were then loaded onto a Panoptic kinetic imaging plate reader (WaveFront Biosciences, Franklin, TN, USA). […]

T1 sequence (Q15858 whole entry): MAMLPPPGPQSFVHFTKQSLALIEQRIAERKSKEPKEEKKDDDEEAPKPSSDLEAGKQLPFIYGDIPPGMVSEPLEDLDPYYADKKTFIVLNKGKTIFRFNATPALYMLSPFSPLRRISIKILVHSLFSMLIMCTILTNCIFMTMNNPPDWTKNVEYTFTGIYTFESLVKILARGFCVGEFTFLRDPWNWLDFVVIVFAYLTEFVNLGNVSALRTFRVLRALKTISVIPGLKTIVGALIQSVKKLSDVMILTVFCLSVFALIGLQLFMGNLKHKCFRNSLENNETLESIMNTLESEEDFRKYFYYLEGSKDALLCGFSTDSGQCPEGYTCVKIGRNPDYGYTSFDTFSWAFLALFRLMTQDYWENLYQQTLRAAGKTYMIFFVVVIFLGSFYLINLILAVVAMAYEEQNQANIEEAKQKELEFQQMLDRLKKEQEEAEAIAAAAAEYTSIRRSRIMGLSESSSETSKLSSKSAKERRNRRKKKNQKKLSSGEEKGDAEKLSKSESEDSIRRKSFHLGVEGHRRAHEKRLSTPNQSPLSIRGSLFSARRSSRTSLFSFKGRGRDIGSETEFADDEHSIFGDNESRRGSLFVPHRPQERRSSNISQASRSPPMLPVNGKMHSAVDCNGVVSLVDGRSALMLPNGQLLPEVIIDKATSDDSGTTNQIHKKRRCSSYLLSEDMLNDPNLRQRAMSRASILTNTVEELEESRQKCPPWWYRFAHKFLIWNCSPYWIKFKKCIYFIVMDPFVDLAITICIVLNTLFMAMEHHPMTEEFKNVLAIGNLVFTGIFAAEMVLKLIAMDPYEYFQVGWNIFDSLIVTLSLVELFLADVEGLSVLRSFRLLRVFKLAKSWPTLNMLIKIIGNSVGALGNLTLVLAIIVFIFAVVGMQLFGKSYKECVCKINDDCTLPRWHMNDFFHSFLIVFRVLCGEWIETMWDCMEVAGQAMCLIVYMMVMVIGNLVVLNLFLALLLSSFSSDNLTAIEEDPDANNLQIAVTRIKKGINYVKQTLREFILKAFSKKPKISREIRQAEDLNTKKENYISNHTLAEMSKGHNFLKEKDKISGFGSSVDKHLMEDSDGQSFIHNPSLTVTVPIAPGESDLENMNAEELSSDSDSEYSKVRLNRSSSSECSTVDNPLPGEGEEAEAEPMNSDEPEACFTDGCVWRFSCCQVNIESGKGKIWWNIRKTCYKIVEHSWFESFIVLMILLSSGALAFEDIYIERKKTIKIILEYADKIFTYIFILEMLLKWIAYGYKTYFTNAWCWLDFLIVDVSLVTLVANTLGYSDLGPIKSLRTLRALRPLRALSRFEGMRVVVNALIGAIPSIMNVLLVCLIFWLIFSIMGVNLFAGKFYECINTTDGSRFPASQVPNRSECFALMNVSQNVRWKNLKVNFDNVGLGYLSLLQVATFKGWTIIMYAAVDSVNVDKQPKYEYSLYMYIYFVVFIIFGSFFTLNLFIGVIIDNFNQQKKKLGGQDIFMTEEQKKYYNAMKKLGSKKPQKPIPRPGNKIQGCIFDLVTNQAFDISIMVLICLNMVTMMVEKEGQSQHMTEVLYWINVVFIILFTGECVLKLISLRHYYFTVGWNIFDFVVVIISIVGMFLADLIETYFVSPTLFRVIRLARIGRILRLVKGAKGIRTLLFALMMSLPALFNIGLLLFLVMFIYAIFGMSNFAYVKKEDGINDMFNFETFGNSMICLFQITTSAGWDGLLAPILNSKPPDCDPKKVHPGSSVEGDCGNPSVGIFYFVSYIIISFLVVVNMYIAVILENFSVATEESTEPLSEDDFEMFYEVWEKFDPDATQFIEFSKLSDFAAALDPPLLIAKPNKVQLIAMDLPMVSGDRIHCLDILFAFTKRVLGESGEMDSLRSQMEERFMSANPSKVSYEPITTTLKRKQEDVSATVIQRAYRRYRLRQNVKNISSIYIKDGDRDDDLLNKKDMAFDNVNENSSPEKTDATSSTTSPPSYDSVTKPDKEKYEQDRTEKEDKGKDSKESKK

Usually inhibition stands for how much of the control response was suppressed. For `CC(C)(Oc1ccc(Cl)cc1)C(=O)Nc1cnc(Oc2c(F)cccc2F)nc1` [Analog 40], the inhibition at 10 µM was 7.5 ± 1.7%.

In the case of `CN(c1ccc(C#N)cc1)c1ncc(NC(=O)C(C)(C)Oc2ccc(Cl)cc2)cn1` [Analog 66], the inhibition at 10 µM was found to be 17 ± 1.8%.
